We go through 11 compounds from patent publication US20240140986A1, “SYNTHETIC URSOLIC ACID DERIVATIVES AND METHODS OF USE THEREOF” (REATA PHARMACEUTICALS, INC., priority 2021, published 2024).

Where two headings read alike, the source gives them in different places.

In assay [1] the test system is Nrf2 / ARE-dependent luciferase in AREc32 reporter cell line. Description: AREc32 luciferase reporter activation (Nrf2 induction). Format: cell-based, human. To be noted: for EC (2-fold): Homo sapiens, Arec32; for Relative Avg AREc32 EC2X Relative to RTA402 (fold): ratio to RTA402. The procedure, abridged: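 EC2X is the concentration raising luminescence 2-fold above DMSO-treated cells, from a nonlinear-regression dose–response fit. Compounds (0.03–1000 nM) were applied for nineteen hours, starting one day after seeding 20,000 reporter cells per well. Luciferase was read with One-Glo reagent.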

Assay [2] has as its system IFNγ-induced NO production in RAW 264.7 cells. Description: Nitric Oxide Suppression Assay (IFNγ-induced NO, Griess nitrite readout). The class given is cell-based, mouse. To be noted: for IC50: Mus musculus; for Avg NO IC50 Relative to RTA402 (fold): Table 2, ratio to RTA402. The procedure, abridged: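 RAW 264.7 mouse macrophages in RPMI 1640 with 0.5% FBS were pretreated 2 h with compound (0.1% DMSO final), then stimulated with 20 ng/mL IFNγ for 24 h at 37° C. Supernatant nitrite was read by Griess absorbance at 525 nm against a nitrite standard curve, normalized to DMSO-IFNγ wells; IC50 from curve fit. Viability by WST-1.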

Where [3] appears, read: Table 2, concentration increasing luminescence 2-fold above vehicle, 19 h treatment, read-out: Avg AREc32 EC2X (nM) (Mean ± SD).
Setting [4] is: Table 3, ursolic acid derivatives, read-out: Avg ARE EC-2X (nM) (Mean ± SD).
Where [5] appears, read: RAW264.7, Table 2, RAW 264.7 cells, 2 h pretreatment, 20 ng/mL interferon gamma 24 h, read-out: Avg NO IC50 (nM) (Mean ± SD).
Setting [6] is: RAW264.7, Table 3, ursolic acid derivatives, read-out: Avg NO IC50 (nM) (Mean ± SD).
[7] abbreviates: Table 3, oleanolic acid derivative analogs, read-out: Avg ARE EC-2X.
Setting [8] is: RAW264.7, Table 3, oleanolic acid derivative analogs, read-out: Avg NO IC50.

On to `C[C@@H]1[C@H]2[C@H]3C(=O)C=C4[C@@]5(C)C=C(C#N)C(=O)C(C)(C)[C@@H]5CC[C@@]4(C)[C@]3(C)CC[C@@]2(CN2CCOC2)CC[C@H]1C` [Compound T42], for which the EC (2-fold) in assay [1] (setting [3]) and in assay [1] (setting [4]) was 26.3 ± 6 nM each time. Further, in assay [1] (Table 2), the “Relative Avg AREc32 EC2X Relative to RTA402 (fold)” value is listed as 2.43 ± 0.39 fold. The IC50 in assay [2] (setting [5]) and in assay [2] (setting [6]) was 38.2 ± 10 nM in each case. In assay [2], the “Avg NO IC50 Relative to RTA402 (fold)” value worked out at 14.80 ± 6.91 fold.
`CC1(C)CC[C@]2(CN3CCOC3)CC[C@]3(C)[C@H](C(=O)C=C4[C@@]5(C)C=C(C#N)C(=O)C(C)(C)[C@@H]5CC[C@]43C)[C@@H]2C1` [CC42, reference compound]: the EC (2-fold) in assay [1] (setting [7]) was 122 nM. Further, in assay [2] (setting [8]), the IC50 came out at 17.3 nM.
Turning to `COC(=O)C[C@]12CC[C@@H](C)[C@H](C)[C@H]1[C@H]1C(=O)C=C3[C@@]4(C)C=C(C#N)C(=O)C(C)(C)[C@@H]4CC[C@@]3(C)[C@]1(C)CC2` [Compound T88], the EC (2-fold) in assay [1] (setting [3]) came to 10.7 ± 3.2 nM. In addition, the “Relative Avg AREc32 EC2X Relative to RTA402 (fold)” value in assay [1] (Table 2) is reported as 1.03 ± 0.33 fold. Also, the IC50 in assay [2] (setting [5]) worked out at 12.9 ± 5.1 nM. Also, the “Avg NO IC50 Relative to RTA402 (fold)” value in assay [2] came to 6.48 ± 0.96 fold.
For `C[C@@H]1[C@H]2[C@H]3C(=O)C=C4[C@@]5(C)C=C(C#N)C(=O)C(C)(C)[C@@H]5CC[C@@]4(C)[C@]3(C)CC[C@@]2(n2ccnn2)CC[C@H]1C` [Compound T60], the EC (2-fold) in assay [1] (setting [3]) turned out to be 8.89 ± 1.13 nM. In assay [1] (Table 2), the “Relative Avg AREc32 EC2X Relative to RTA402 (fold)” value was 0.791 ± 0.111 fold. Moreover, the IC50 in assay [2] (setting [5]) turned out to be 18.2 ± 6.2 nM. Also, the “Avg NO IC50 Relative to RTA402 (fold)” value in assay [2] was 4.94 ± 1.78 fold.
On to `CCNC(=O)N[C@]12CC[C@@H](C)[C@H](C)[C@H]1[C@H]1C(=O)C=C3[C@@]4(C)C=C(C#N)C(=O)C(C)(C)[C@@H]4CC[C@@]3(C)[C@]1(C)CC2` [Compound T65], for which the EC (2-fold) in assay [1] (setting [3]) turned out to be 12.9 ± 2 nM. For the same compound, in assay [1] (Table 2), the “Relative Avg AREc32 EC2X Relative to RTA402 (fold)” value is listed as 1.14 ± 0.20 fold. For the same compound, in assay [2] (setting [5]), the IC50 came to 25.5 ± 4.1 nM. The “Avg NO IC50 Relative to RTA402 (fold)” value in assay [2] is given as 7.42 ± 3.56 fold.
Take `C[C@@H]1[C@H]2[C@H]3C(=O)C=C4[C@@]5(C)C=C(C#N)C(=O)C(C)(C)[C@@H]5CC[C@@]4(C)[C@]3(C)CC[C@@]2(c2nc(CO)no2)CC[C@H]1C` [Compound T10]: the EC (2-fold) in assay [1] (setting [3]) and in assay [1] (setting [4]) was 2.4 ± 0.3 nM throughout. The “Relative Avg AREc32 EC2X Relative to RTA402 (fold)” value in assay [1] (Table 2) is 0.193 ± 0.024 fold. The IC50 in assay [2] (setting [5]) and in assay [2] (setting [6]) was 2.08 ± 0.14 nM in each case. In addition, the “Avg NO IC50 Relative to RTA402 (fold)” value in assay [2] is reported as 1.45 ± 0.28 fold.
For the compound `Cc1nc([C@]23CCC(C)(C)C[C@H]2[C@H]2C(=O)C=C4[C@@]5(C)C=C(C#N)C(=O)C(C)(C)[C@@H]5CC[C@@]4(C)[C@]2(C)CC3)no1` [CC82, reference compound], the EC (2-fold) in assay [1] (setting [7]) worked out at 22.1 nM. Besides, the IC50 in assay [2] (setting [8]) came out at 3.8 nM.
Take `C[C@@H]1[C@H]2[C@H]3C(=O)C=C4[C@@]5(C)C=C(C#N)C(=O)C(C)(C)[C@@H]5CC[C@@]4(C)[C@]3(C)CC[C@@]2(CNC(=O)C(F)F)CC[C@H]1C` [Compound T28]: the EC (2-fold) in assay [1] (setting [3]) was 4.33 ± 1.62 nM. In addition, the “Relative Avg AREc32 EC2X Relative to RTA402 (fold)” value in assay [1] (Table 2) came out at 0.331 ± 0.101 fold. Moreover, the IC50 in assay [2] (setting [5]) came out at 3.64 ± 1.69 nM. Moreover, the “Avg NO IC50 Relative to RTA402 (fold)” value in assay [2] came out at 1.15 ± 0.32 fold.
As for `CC(=O)N(C)C[C@]12CC[C@@H](C)[C@H](C)[C@H]1[C@H]1C(=O)C=C3[C@@]4(C)C=C(C#N)C(=O)C(C)(C)[C@@H]4CC[C@@]3(C)[C@]1(C)CC2` [Compound T35], the EC (2-fold) in assay [1] (setting [3]) and in assay [1] (setting [4]) was 5.05 ± 1.1 nM throughout. In addition, in assay [1] (Table 2), the “Relative Avg AREc32 EC2X Relative to RTA402 (fold)” value was 0.442 ± 0.136 fold. Also, the IC50 in assay [2] (setting [5]) and in assay [2] (setting [6]) was 5.57 ± 2 nM in each case. The “Avg NO IC50 Relative to RTA402 (fold)” value in assay [2] came out at 1.66 ± 0.32 fold.
Consider `C[C@@H]1[C@H]2[C@H]3C(=O)C=C4[C@@]5(C)C=C(C#N)C(=O)C(C)(C)[C@@H]5CC[C@@]4(C)[C@]3(C)CC[C@@]2(N2CCOC2=O)CC[C@H]1C` [CC59, reference compound], for which the EC (2-fold) in assay [1] (setting [7]) amounted to 23.6 nM. For the same compound, the IC50 in assay [2] (setting [8]) was 2.2 nM.
For `C[C@@H]1[C@H]2[C@H]3C(=O)C=C4[C@@]5(C)C=C(C#N)C(=O)C(C)(C)[C@@H]5CC[C@@]4(C)[C@]3(C)CC[C@@]2(c2nc(C3CC3)no2)CC[C@H]1C` [Compound T2], the EC (2-fold) in assay [1] (setting [3]) and in assay [1] (setting [4]) was 35 ± 2 nM throughout. Further, the “Relative Avg AREc32 EC2X Relative to RTA402 (fold)” value in assay [1] (Table 2) is on record as 3.41 ± 0.20 fold. Besides, the IC50 in assay [2] (setting [5]) and in assay [2] (setting [6]) was 21.3 ± 7.4 nM each time. In addition, the “Avg NO IC50 Relative to RTA402 (fold)” value in assay [2] is recorded as 9.86 ± 0.83 fold.
